Source: patent US20210269434A1, “TRICYCLIC COMPOUNDS AS INHIBITORS OF KRAS” (Incyte Corporation, priority 2020, published 2021)

Legend:
KRAS G12C = KRAS G12C (Homo sapiens, UniProt P01116, G12C); assay: GDP-GTP exchange assay (KRAS_G12C exchange); type: biochemical; conditions: bodipy-GDP loaded KRAS G12C 2.5 nM, SOS1 150 nM, GppNHp; 2 hours pre-incubation, 2 hours reaction; read-out: G12C_exchange
Experimental: Example A. GDP-GTP Exchange Assay
The inhibitor potency of the exemplified compounds was determined in a fluorescence based guanine nucleotide exchange assay, which measures the exchange of bodipy-GDP (fluorescently labeled GDP) for GppNHp (Non-hydrolyzable GTP analog) to generate the active state of KRAS in the presence of SOS1 (guanine nucleotide exchange factor). Inhibitors were serially diluted in DMSO and a volume of 0.1 μL was transferred to the wells of a black low volume 384-well plate. 5 μL/well volume of bodipy-loaded KRAS G12C diluted to 5 nM in assay buffer (25 mM Hepes pH 7.5, 50 mM NaCl, 10 mM MgCl2 and 0.01% Brij-35) was added to the plate and pre-incubated with inhibitor for 2 hours at ambient temperature. Appropriate controls (enzyme with no inhibitor or with a G12C inhibitor (AMG-510)) were included on the plate. The exchange was initiated by the addition of a 5 μL/well volume containing 1 mM GppNHp and 300 nM SOS1 in assay buffer. The 10 μL/well reaction concentration of the bodipy-loaded KRAS G12C, GppNHp, and SOS1 were 2.5 nM, 500 uM, and 150 nM, respectively. The reaction plates were incubated at ambient temperature for 2 hours, a time estimated for complete GDP-GTP exchange in the absence of inhibitor. For the KRAS G12D and G12V mutants, similar guanine nucleotide exchange assays were used with 2.5 nM as final concentration for the bodipy loaded KRAS proteins and with 4 hours and 3 hours incubation after adding GppNHp-SOS1 mixture for G12D and G12V respectively. A cyclic peptide described to selectively bind G12D mutant (Sakamoto et al., BBRC 484.3 (2017), 605-611) or internal compounds with confirmed binding were used as positive controls in the assay plates. Fluorescence intensities were measured on a PheraStar plate reader instrument (BMG Labtech) with excitation at 485 nm and emission at 520 nm.
Either GraphPad prism or XLfit was used to analyze the data. The IC50 values were derived by fitting the data to a four parameter logistic equation producing a sigmoidal dose-response curve with a variable Hill coefficient. Prism equation: Y=Bottom+(Top−Bottom)/(1+10^((Log lC50−X)*Hill slope)); XLfit equation: Y=(A+((B−A)/(1+((X/C)^D)))) where X is the logarithm of inhibitor concentration and Y is the response.

[1] = tested on: MIA PaCa-2 (KRAS G12C) cells; assay: Cellular pERK HTRF assay (KRAS_G12C pERK); type: cell-based, human; conditions: Homo sapiens, MIA PaCa-2, 4 hours incubation, read-out: G12C_pERK
Experimental: Example C: Cellular pERK HTRF Assay
MIA PaCa-2 (KRAS G12C; ATCC® CRL-1420), A427 (KRAS G12D; ATCC® HTB53), HPAF-II (KRAS G12D; ATCC® CRL-1997) and NCI-H838 (KRAS WT; ATCC® CRL-5844) cells are purchased from ATCC and maintained in RPMI 1640 media supplemented with 10% FBS (Gibco/Life Technologies). The cells are plated at 5000 cells per well (8 uL) into Greiner 384-well low volume, flat-bottom, tissue culture treated white plates and incubated overnight at 37° C., 5% CO2. The next morning, test compound stock solutions are diluted in media at 3× the final concentration, and 4 uL are added to the cells. The plate is mixed by gentle rotation for 30 seconds (250 rpm) at room temperature. The cells are incubated with the KRAS G12C and G12D compounds for 4 hours or 2 hours respectively at 37° C., 5% CO2.
4 uL of 4× lysis buffer with blocking reagent (1:25) (Cisbio) are added to each well and plates are rotated gently (300 rpm) for 30 minutes at room temperature. 4 uL per well of Cisbio anti Phospho-ERK 1/2 d2 is mixed with anti Phospho-ERK 1/2 Cryptate (1:1) are added to each well, mixed by rotation and incubated overnight in the dark at room temperature. Plates are read on the Pherastar plate reader at 665 nm and 620 nm wavelengths. IC50 determination is performed by fitting the curve of inhibitor percent inhibition versus the log of the inhibitor concentration using the GraphPad Prism 7 software.

Chain of KRAS G12C (P01116 1-188 isoform P01116-2 G12C): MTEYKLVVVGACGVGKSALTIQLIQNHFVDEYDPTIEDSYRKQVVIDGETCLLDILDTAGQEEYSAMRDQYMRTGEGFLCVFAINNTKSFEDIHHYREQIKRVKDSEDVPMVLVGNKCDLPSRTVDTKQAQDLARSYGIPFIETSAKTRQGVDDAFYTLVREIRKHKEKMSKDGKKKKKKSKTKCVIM

IC50 (KRAS G12C) [nM]	IC50 [1] [nM]	SMILES
≤ 100	≤ 100	CC#CC(=O)N1CC[C@H](n2nnc3c(OC[C@@H]4CCCN4C)nc4c(F)c(-c5cccc(Cl)c5C)c(Cl)cc4c32)C[C@H]1CC#N (single isomer, unassigned) [Example 87a]
≤ 100	≤ 100	C=CC(=O)N1CC[C@H](n2nnc3c(N4CC(N(C)C)C4)nc4c(F)c(-c5c(C)c(Cl)cc6c5cnn6C)c(Cl)cc4c32)C[C@H]1CC#N (single isomer, unassigned) [Example 150a]
≤ 100	≤ 100	Cc1cc2c(nc(OC[C@@H]3CCCN3C)c3nnn([C@H]4CCN(C(=O)/C=C/CF)[C@H](CC#N)C4)c32)c(F)c1-c1ccccc1C(F)(F)F (single isomer, unassigned) [Example 159a]
≤ 100	≤ 100	C=CC(=O)N1CC[C@H](n2nnc3c(OC[C@@H]4CCCN4C)nc4c(F)c(-c5ccccc5C(F)(F)F)c(C)cc4c32)C[C@H]1CC#N (single isomer, unassigned) [Example 160a]
≤ 100	≤ 100	Cc1cc2c(nc(N3CC(N(C)C)C3)c3nnn([C@H]4CCN(C(=O)/C=C/CN(C)C)[C@H](CC#N)C4)c32)c(F)c1-c1ccccc1C(F)(F)F (single isomer, unassigned) [Example 163a]
≤ 100	≤ 100	C=CC(=O)N1CC[C@H](n2nnc3c(N4CC(N(C)C)C4)nc4c(F)c(-c5ccccc5C(F)(F)F)c(C)cc4c32)C[C@H]1CC#N (single isomer, unassigned) [Example 165a]
≤ 100	≤ 100	Cc1cc2c(nc(-n3ccnc3C)c3nnn([C@H]4CCN(C(=O)/C=C/CN(C)C)[C@H](CC#N)C4)c32)c(F)c1-c1ccccc1C(F)(F)F (single isomer, unassigned) [Example 167a]
≤ 100	≤ 100	Cc1cc2c(nc(OC[C@@H]3CCCN3C)c3nnn([C@H]4CCN(C(=O)/C=C/C(F)F)[C@H](CC#N)C4)c32)c(F)c1-c1cccnc1C(F)(F)F (single isomer, unassigned) [Example 168a]
≤ 100	≤ 100	C=CC(=O)N1CC[C@H](n2nnc3c(N4CC(N(C)C)C4)nc4c(F)c(-c5c(C)c(Cl)cc6[nH]ncc56)c(Cl)cc4c32)C[C@H]1CC#N (single isomer, unassigned) [Example 185a]
≤ 100	≤ 100	COC/C=C/C(=O)N1CC[C@H](n2nnc3c(OC[C@@H]4CCCN4C)nc4c(F)c(-c5c(C)c(Cl)cc6[nH]ncc56)c(Cl)cc4c32)C[C@H]1CC#N (single isomer, unassigned) [Example 191a]
≤ 100	≤ 100	C=CC(=O)N1CC[C@H](n2nnc3c(N4CC(C)(N(C)C)C4)nc4c(F)c(-c5c(C)c(Cl)cc6[nH]ncc56)c(C)cc4c32)C[C@H]1CC#N (single isomer, unassigned) [Example 193a]
≤ 100	≤ 100	CC#CC(=O)N1CC[C@H](n2nnc3c(N4CC(C)(N(C)C)C4)nc4c(F)c(-c5c(C)c(Cl)cc6[nH]ncc56)c(C)cc4c32)C[C@H]1CC#N (single isomer, unassigned) [Example 194a]
≤ 100	≤ 100	CC#CC(=O)N1CC[C@H](n2nnc3c(OC[C@@H]4CCCN4C)nc4c(F)c(-c5cccnc5C(F)(F)F)c(C)cc4c32)C[C@H]1CC#N (single isomer, unassigned) [Example 205a]
≤ 100	≤ 100	C=CC(=O)N1CCC(n2cnc3c(N4CC(N(C)CC)C4)nc4c(F)c(-c5cccc6cccc(Cl)c56)c(Cl)cc4c32)C[C@H]1CC#N (single isomer, unassigned) [Example 214b]
≤ 100	≤ 100	C=CC(=O)N1CCC(n2nnc3c(N4CC(C)(N(C)C)C4)nc4c(F)c(-c5cccc6cccc(Cl)c56)c(Cl)cc4c32)C[C@H]1CC#N (single isomer, unassigned) [Example 216a]
≤ 100	≤ 100	C=CC(=O)N1CCC(n2cnc3c(N4CC(C)(N(C)C)C4)nc4c(F)c(-c5cccc6cccc(Cl)c56)c(C)cc4c32)C[C@H]1CC#N (single isomer, unassigned) [Example 221a]

The next lines start with the compound.

SMILES	IC50 (KRAS G12C) [nM]	IC50 [1] [nM]
C=CC(=O)N1CC[C@H](n2cnc3c(OC[C@@H]4CCCN4C)nc4c(F)c(-c5cccc(Cl)c5C)c(Cl)cc4c32)C[C@H]1CC#N (single isomer, unassigned) [Example 118a]	≤ 100	≤ 100
C=CC(=O)N1CC[C@H](n2cnc3c(OC[C@H]4CCCN4C)nc4c(F)c(-c5cccc(Cl)c5C)c(Cl)cc4c32)C[C@H]1CC#N (single isomer, unassigned) [Example 119a]	≤ 100	≤ 100
COC/C=C/C(=O)N1CC[C@H](n2nnc3c(OC[C@@H]4CCCN4C)nc4c(F)c(-c5ccccc5C(F)(F)F)c(C)cc4c32)C[C@H]1CC#N (single isomer, unassigned) [Example 157a]	≤ 100	≤ 100
CC#CC(=O)N1CC[C@H](n2nnc3c(N4CC(N(C)C)C4)nc4c(F)c(-c5c(C)c(Cl)cc6[nH]ncc56)c(Cl)cc4c32)C[C@H]1CC#N (single isomer, unassigned) [Example 178a]	≤ 100	≤ 100
C=CC(=O)N1CC[C@H](n2nnc3c(N4CC(C)(N(C)C)C4)nc4c(F)c(-c5c(C)c(C)cc6[nH]ncc56)c(C)cc4c32)C[C@H]1CC#N (single isomer, unassigned) [Example 198a]	≤ 100	≤ 100
C=CC(=O)N1CC[C@H](n2nnc3c(N4CC(C)(N(C)C)C4)nc4c(F)c(-c5c(C)ccc6[nH]ncc56)c(C)cc4c32)C[C@H]1CC#N (single isomer, unassigned) [Example 200a]	≤ 100	≤ 100
C=CC(=O)N1CCC(n2cnc3c(N4CC(C)(N(C)C)C4)nc4c(F)c(-c5cccc6cccc(Cl)c56)c(Cl)cc4c32)C[C@H]1CC#N (single isomer, unassigned) [Example 212a]	≤ 100	≤ 100
CC#CC(=O)N1CCC(n2cnc3c(N4CC(C)(N(C)C)C4)nc4c(F)c(-c5cccc6cccc(Cl)c56)c(Cl)cc4c32)C[C@H]1CC#N (single isomer, unassigned) [Example 213b]	≤ 100	≤ 100
C=CC(=O)N1CCC(n2cnc3c(OC[C@@H]4CCCN4C)nc4c(F)c(-c5cccc6cccc(Cl)c56)c(Cl)cc4c32)C[C@H]1CC#N (single isomer, unassigned) [Example 215b]	≤ 100	≤ 100
CC#CC(=O)N1CCC(n2nnc3c(N4CC(C)(N(C)C)C4)nc4c(F)c(-c5cccc6cccc(Cl)c56)c(Cl)cc4c32)C[C@H]1CC#N (single isomer, unassigned) [Example 218a]	≤ 100	≤ 100
C=CC(=O)N1CCC(n2nnc3c(N4CC(N(C)CC)C4)nc4c(F)c(-c5cccc6cccc(Cl)c56)c(Cl)cc4c32)C[C@H]1CC#N (single isomer, unassigned) [Example 219a]	≤ 100	≤ 100
C=CC(=O)N1CCC(n2nnc3c(N4CC(C)(N(C)C)C4)nc4c(F)c(-c5cccc6cccc(C#N)c56)c(Cl)cc4c32)C[C@H]1CC#N (single isomer, unassigned) [Example 220a]	≤ 100	≤ 100
